Data published in patent US9475839B2, “Peptide-based inhibitor of interleukin-10 or interferon-gamma signaling” (THE UNITED STATES OF AMERICA, AS REPRESENTED BY THE …, priority 2010, dated 2016).
Like-named read-outs stand apart in the source and are kept apart here. Residues, ends and D or L forms follow the SMILES beside them. *: point of attachment. Palmitoyl = CCCCCCCCCCCCCCCC(=O)*

Test system: MDA-MB-231 breast cancer cells
Experiment: Inhibition of IFN-gamma-dependent growth of MDA-MB-231 cells, MTT assay, 48 hours
Assay type: cell-based
Method: Cells were exposed to compounds for 48 hours and cell number was determined with the help of MTT assay.
Cells were exposed to IL10-HF-1 for 48 hours and cell number was determined with the help of MTT assay.
Peptides designed to mimic conserved regions of the receptor sequences were tested for the ability to inhibit IL10 and IFN-gamma signaling. Inhibition of IL10 signaling was tested in a mouse mast cell line MC/9. […] Abrogation of IFN-gamma signaling or STAT1 activation causes cell death in this cell line.

GI50 (48 h) [nM] | Compound | GI50 (Table 3, MDA-MB-231 breast cancer cell line growth, regions B, C, D of IFNGR1, read-out: GI50) [nM]
> 25000 | CCCCCCCCCCCCCCCC(=O)N[C@@H](Cc1ccccc1)C(=O)N[C@@H](Cc1ccc(O)cc1)C(=O)N[C@H](C(=O)N[C@@H](CCCCN)C(=O)N[C@@H](CCCCN)C(=O)N[C@H](C(=O)N[C@@H](CC(N)=O)C(=O)N1CCC[C@H]1C(=O)N[C@@H](CC(C)C)C(=O)N[C@@H](CCCCN)C(=O)N[C@@H](CCC(=O)O)C(=O)N[C@@H](CCCCN)C(=O)N[C@@H](CO)C(=O)N[C@H](C(=O)N[C@H](C(=O)N[C@@H](CC(C)C)C(=O)N1CCC[C@H]1C(=O)N[C@@H](CCCCN)C(=O)N[C@@H](CO)C(N)=O)[C@@H](C)CC)[C@@H](C)CC)[C@@H](C)CC)[C@@H](C)CC [IFNGR1-1, ε-Pal-FYIKKINPLKEKSIILPKS-NH2] (Palmitoyl-FYIKKINPLKEKSIILPKS-NH2) | 
50 | CCCCCCCCCCCCCCCC(=O)N1CCC[C@H]1C(=O)N[C@@H](CC(C)C)C(=O)N[C@@H](CCCCN)C(=O)N[C@@H](CCC(=O)O)C(=O)N[C@@H](CCCCN)C(=O)N[C@@H](CO)C(=O)N[C@H](C(=O)N[C@H](C(=O)N[C@@H](CC(C)C)C(=O)N1CCC[C@H]1C(=O)N[C@@H](CCCCN)C(=O)N[C@@H](CO)C(=O)N[C@@H](CC(C)C)C(=O)N[C@@H](CC(C)C)C(=O)N[C@@H](CO)C(=O)N[C@H](C(=O)N[C@H](C(=O)N[C@@H](CCCNC(=N)N)C(N)=O)C(C)C)C(C)C)[C@@H](C)CC)[C@@H](C)CC [IFNGR1-3, ε-Pal-PLKEKSIILPKSLLSVVR-NH2] (Palmitoyl-PLKEKSIILPKSLLSVVR-NH2) | 
2500 | CCCCCCCCCCCCCCCC(=O)N[C@H](C(=O)N[C@@H](CC(C)C)C(=O)N1CCC[C@H]1C(=O)N[C@@H](CCCCN)C(=O)N[C@@H](CO)C(=O)N[C@@H](CC(C)C)C(=O)N[C@@H](CC(C)C)C(=O)N[C@@H](CO)C(=O)N[C@H](C(=O)N[C@H](C(=O)N[C@@H](CCCNC(=N)N)C(=O)N[C@@H](CO)C(=O)N[C@@H](C)C(=O)N[C@H](C(N)=O)[C@@H](C)O)C(C)C)C(C)C)[C@@H](C)CC [IFNGR1-4, ε-Pal-ILPKSLLSVVRSAT-NH2] (Palmitoyl-ILPKSLLSVVRSAT-NH2) | 
70 | CCCCCCCCCCCCCCCC(=O)NCCCC[C@H](N)C(=O)NCC(=O)N[C@@H](CCCCN)C(=O)N[C@@H](CCC(=O)O)C(=O)N[C@@H](CO)C(=O)N[C@@H](CC(C)C)C(=O)N[C@H](C(=O)NCC(=O)N[C@@H](Cc1ccc(O)cc1)C(=O)N[C@@H](CCCNC(=N)N)C(=O)N1CCC[C@H]1C(=O)N[C@H](C(N)=O)[C@@H](C)O)[C@@H](C)CC [IFNGR1-6, ε-Pal-KGKESLIGYRPT-NH2] (H-K(Palmitoyl)GKESLIGYRPT-NH2; N-terminus assumed) | 
1000 | CCCCCCCCCCCCCCCC(=O)NCCCC[C@H](N)C(=O)NCC(=O)N[C@@H](Cc1ccc(O)cc1)C(=O)N[C@@H](CC(=O)O)C(=O)N[C@@H](CCCCN)C(=O)N1CCC[C@H]1C(=O)N[C@@H](Cc1c[nH]cn1)C(=O)N[C@H](C(=O)N[C@@H](CC(C)C)C(=O)N[C@H](C(=O)N[C@@H](CC(=O)O)C(=O)N[C@@H](CC(C)C)C(=O)N[C@@H](CC(C)C)C(=O)N[C@H](C(=O)N[C@@H](CC(=O)O)C(N)=O)C(C)C)C(C)C)C(C)C [IFNGR1-7, ε-Pal-KGYDKPHVLVDLLVD-NH2] (H-K(Palmitoyl)GYDKPHVLVDLLVD-NH2; N-terminus assumed) | 
5000 ± 1000 | CCCCCCCCCCCCCCCC(=O)NCCCC[C@H](N)C(=O)N[C@@H](CO)C(=O)N[C@H](C(=O)N[C@@H](C)C(=O)N[C@@H](CC(C)C)C(=O)N[C@@H](CC(N)=O)C(=O)N[C@@H](CO)C(=O)N[C@@H](Cc1ccc(O)cc1)C(=O)N[C@@H](Cc1c[nH]cn1)C(=O)N[C@@H](CO)C(=O)N[C@@H](CCCNC(=N)N)C(=O)N[C@@H](CC(N)=O)C(N)=O)[C@@H](C)CC [IFNGR1-8, ε-Pal-KSIALNSYHSRN-NH2] (H-K(Palmitoyl)SIALNSYHSRN-NH2; N-terminus assumed) | 
2500 | CCCCCCCCCCCCCCCC(=O)NCCCC[C@H](N)C(=O)NCC(=O)NCC(=O)N[C@@H](CCCCN)C(=O)N[C@@H](CCC(=O)O)C(=O)N[C@@H](CO)C(=O)N[C@@H](CC(C)C)C(=O)N[C@H](C(=O)NCC(=O)N[C@@H](Cc1ccc(O)cc1)C(=O)N[C@@H](CCCNC(=N)N)C(N)=O)[C@@H](C)CC [IFNGR1-10, ε-Pal-KGGKESLIGYR-NH2] (H-K(Palmitoyl)GGKESLIGYR-NH2; N-terminus assumed) | 
2000 | CCCCCCCCCCCCCCCC(=O)NCCCC[C@H](N)C(=O)NCC(=O)N[C@@H](CCCCN)C(=O)N[C@@H](CCC(=O)O)C(=O)N[C@@H](CO)C(=O)N[C@@H](CC(C)C)C(=O)N[C@H](C(=O)NCC(=O)N[C@@H](Cc1ccc(O)cc1)C(=O)N[C@@H](CCCNC(=N)N)C(N)=O)[C@@H](C)CC [IFNGR1-11, ε-Pal-KGKESLIGYR-NH2] (H-K(Palmitoyl)GKESLIGYR-NH2; N-terminus assumed) | 
600 | CCCCCCCCCCCCCCCC(=O)NCCCC[C@H](N)C(=O)NCC(=O)N[C@@H](Cc1ccc(O)cc1)C(=O)N[C@@H](CC(=O)O)C(=O)N[C@@H](CCCCN)C(=O)N1CCC[C@H]1C(=O)N[C@@H](Cc1c[nH]cn1)C(=O)N[C@H](C(=O)N[C@@H](CC(C)C)C(=O)N[C@H](C(N)=O)C(C)C)C(C)C [IFNGR1-12, ε-Pal-KGYDKPHVLV-NH2] (H-K(Palmitoyl)GYDKPHVLV-NH2; N-terminus assumed) | 
4500 | CCCCCCCCCCCCCCCC(=O)NCCCC[C@H](N)C(=O)N[C@@H](CC(C)C)C(=O)N[C@@H](CC(N)=O)C(=O)N[C@@H](CO)C(=O)N[C@@H](Cc1ccc(O)cc1)C(=O)N[C@@H](Cc1c[nH]cn1)C(=O)N[C@@H](CO)C(=O)N[C@@H](CCCNC(=N)N)C(=O)N[C@@H](CC(N)=O)C(=O)NCC(=O)N[C@@H](CO)C(N)=O [IFNGR1-13, ε-Pal-KLNSYHSRNGS-NH2] (H-K(Palmitoyl)LNSYHSRNGS-NH2; N-terminus assumed) | 
1600 | CCCCCCCCCCCCCCCC(=O)NCCCC[C@H](N)C(=O)NCC(=O)N[C@@H](Cc1ccc(O)cc1)C(=O)N[C@@H](CC(=O)O)C(=O)N[C@@H](CCCCN)C(=O)N1CCC[C@H]1C(=O)N[C@@H](Cc1c[nH]cn1)C(=O)N[C@H](C(N)=O)C(C)C [IFNGR1-15, ε-Pal-KGYDKPHV-NH2] (H-K(Palmitoyl)GYDKPHV-NH2; N-terminus assumed) | 
 | CCCCCCCCCCCCCCCC(=O)NCCCC[C@H](N)C(=O)N[C@@H](Cc1ccccc1)C(=O)NCC(=O)N[C@@H](Cc1ccc(O)cc1)C(=O)N[C@@H](CC(=O)O)C(=O)N[C@@H](CCCCN)C(=O)N1CCC[C@H]1C(=O)N[C@@H](Cc1c[nH]cn1)C(=O)N[C@H](C(N)=O)C(C)C [IFNGR1-16, ε-Pal-KFGYDKPHV-NH2] (H-K(Palmitoyl)FGYDKPHV-NH2; N-terminus assumed) | 2100
5000 | CCCCCCCCCCCCCCCC(=O)NCCCC[C@H](N)C(=O)N[C@@H](CCCCN)C(=O)N[C@@H](Cc1ccc(O)cc1)C(=O)N[C@@H](CCC(N)=O)C(=O)N[C@@H](CO)C(=O)N[C@@H](CCCNC(=N)N)C(=O)N[C@H](C(=O)N[C@@H](CCCCN)C(=O)N[C@@H](Cc1ccc(O)cc1)C(=O)N[C@@H](Cc1c[nH]c2ccccc12)C(=O)N[C@@H](Cc1ccccc1)C(=O)N[C@@H](CCC(N)=O)C(=O)N[C@@H](C)C(=O)N1CCC[C@H]1C(=O)N1CCC[C@H]1C(=O)N[C@@H](CC(N)=O)C(=O)N[C@H](C(=O)N1CCC[C@H]1C(=O)O)[C@@H](C)CC)C(C)C [IFNGR2-1, ε-Pal-KKYQSRVKYWFQAPPNIP] (H-K(Palmitoyl)KYQSRVKYWFQAPPNIP-OH; N-terminus and C-terminus assumed) | 
